Like-named read-outs stand apart in the source and are kept apart here.
Molecular target: T1, F508delCFTR (Homo sapiens, UniProt P13569, DEL508-508)
T1 construct: expressed in transfected cells; host or cells: CFBE41o- human lung-derived epithelial cells (CFBE4lo-F508delCFTR-HRP), doxycycline-inducible
Assay: Cell Surface Expression-Horse Radish Peroxidase (CSE-HRP) Assay;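 as to Maximum % activity (with co-corrector): co-corrector and positive control are both the same reference corrector at 2 µM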;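 as to Maximum % activity (without co-corrector): percent of the 2 µM on-plate positive control corrector response above DMSO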
Format: cell-based
Settings: CSE-HRP; for Maximum % activity (with co-corrector): with co-corrector (2 μM); for Maximum % activity (with co-corrector) / Emax: maximum at any tested concentration, normalized to on-plate positive control; for Emax: without co-corrector, read-out: Maximum % activity (without co-corrector)

[1] = test compound without co-corrector, read-out: EC50 (without co-corrector)
[2] = with co-corrector (2 μM of 3-[(2R,4R)-4-({[1-(2,2-difluoro-1,3-benzodioxol-5-yl)cyclopropyl]carbonyl}amino)-7-methoxy-3,4-dihydro-2H-chromen-2-yl]benzoic acid), read-out: EC50 (with co-corrector)

T1 sequence (P13569 with tags, fused parts or gaps DEL508-508): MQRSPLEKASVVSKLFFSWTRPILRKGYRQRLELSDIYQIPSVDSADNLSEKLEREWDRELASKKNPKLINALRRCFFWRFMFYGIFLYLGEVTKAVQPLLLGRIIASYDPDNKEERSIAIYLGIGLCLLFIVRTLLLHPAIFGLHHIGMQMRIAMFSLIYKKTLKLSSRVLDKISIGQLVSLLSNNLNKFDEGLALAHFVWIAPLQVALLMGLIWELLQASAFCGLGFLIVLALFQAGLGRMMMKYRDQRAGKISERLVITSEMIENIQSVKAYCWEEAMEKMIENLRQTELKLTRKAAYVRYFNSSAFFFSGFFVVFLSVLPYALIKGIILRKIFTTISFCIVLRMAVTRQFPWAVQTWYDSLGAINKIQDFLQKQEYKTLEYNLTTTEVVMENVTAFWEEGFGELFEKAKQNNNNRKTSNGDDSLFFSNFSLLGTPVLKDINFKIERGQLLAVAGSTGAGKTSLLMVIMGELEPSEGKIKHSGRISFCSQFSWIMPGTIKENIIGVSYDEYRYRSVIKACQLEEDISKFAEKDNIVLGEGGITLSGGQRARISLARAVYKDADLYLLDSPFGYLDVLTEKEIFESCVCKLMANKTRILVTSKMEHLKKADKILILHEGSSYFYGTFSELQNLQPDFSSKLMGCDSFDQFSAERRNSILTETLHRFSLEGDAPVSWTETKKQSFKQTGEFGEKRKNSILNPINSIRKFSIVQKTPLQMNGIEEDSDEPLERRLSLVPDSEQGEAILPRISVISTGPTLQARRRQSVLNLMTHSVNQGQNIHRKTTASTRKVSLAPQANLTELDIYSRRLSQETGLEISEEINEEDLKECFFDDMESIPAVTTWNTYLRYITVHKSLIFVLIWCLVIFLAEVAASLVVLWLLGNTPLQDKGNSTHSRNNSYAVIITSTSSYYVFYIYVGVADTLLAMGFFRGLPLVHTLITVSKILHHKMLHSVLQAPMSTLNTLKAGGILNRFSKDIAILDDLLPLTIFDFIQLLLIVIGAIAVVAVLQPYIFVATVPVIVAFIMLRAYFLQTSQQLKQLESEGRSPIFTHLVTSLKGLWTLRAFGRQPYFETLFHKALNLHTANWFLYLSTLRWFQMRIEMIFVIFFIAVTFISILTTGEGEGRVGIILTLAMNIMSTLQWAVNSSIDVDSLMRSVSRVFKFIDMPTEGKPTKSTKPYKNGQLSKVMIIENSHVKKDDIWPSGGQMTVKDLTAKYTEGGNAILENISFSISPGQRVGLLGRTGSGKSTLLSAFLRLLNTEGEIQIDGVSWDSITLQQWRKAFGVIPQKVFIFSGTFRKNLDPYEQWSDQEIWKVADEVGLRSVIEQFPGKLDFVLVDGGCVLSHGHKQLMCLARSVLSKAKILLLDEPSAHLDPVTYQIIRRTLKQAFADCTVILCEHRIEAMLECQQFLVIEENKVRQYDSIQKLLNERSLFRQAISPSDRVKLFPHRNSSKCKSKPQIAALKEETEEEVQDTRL

SMILES | EC50 [1] [µM] | EC50 [2] [µM] | Maximum % activity (with co-corrector) | Emax [%]
COc1ccc(C(C)(C)C)cc1CN[C@H]1[C@H](C(C)(C)C)[C@@H](C(=O)O)N(C(=O)Cc2cccc(C#N)c2)[C@H]1c1ccccc1 [II-240] | 1 to 10 | < 1 | +++ (≥350) | > 200
COc1cc(C(F)(F)F)ccc1CN[C@H]1[C@H](C(C)(C)C)[C@@H](C(=O)O)N(C(=O)C2OC[C@@H]3CCC[C@H]23)[C@H]1c1ccccc1 (stereo partly drawn) [II-241] | 1 to 10 | 1 to 10 | +++ (≥350) | 100 to 200
COCc1ccc(OC)c(CN[C@H]2[C@H](C(C)(C)C)[C@@H](C(=O)O)N(C(=O)C3CCCCC3)[C@H]2c2ccccc2)c1 [II-242] | 1 to 10 | 1 to 10 | +++ (≥350) | 100 to 200
COc1nc2ccccc2cc1CN[C@H]1[C@H](C(C)(C)C)[C@@H](C(=O)O)N(C(=O)C2CCCCC2)[C@H]1c1ccccc1 [II-244] | 1 to 10 | < 1 | +++ (≥350) | > 200
COc1ccc(-c2ccccc2)cc1CN[C@H]1[C@H](C(C)(C)C)[C@@H](C(=O)O)N(C(=O)C2CCCCC2)[C@H]1c1ccccc1F [II-245] | < 1 | < 1 | +++ (≥350) | 100 to 200
COc1ncc(N2CCCC2)cc1CN[C@H]1[C@H](C(C)(C)C)[C@@H](C(=O)O)N(C(=O)C2CCCCC2)[C@H]1c1ccccc1 [II-246] | 1 to 10 | 1 to 10 | +++ (≥350) | 100 to 200
COc1ncc(Br)cc1CN[C@H]1[C@H](C(C)(C)OC)[C@@H](C(=O)O)N(C(=O)C2CCCCC2)[C@H]1c1ccccc1 [II-247] | 1 to 10 | < 1 | +++ (≥350) | 100 to 200
COc1ccc(-c2ccc(C)cc2)cc1CN[C@H]1[C@H](C(C)(C)C)[C@@H](C(=O)O)N(C(=O)C2CCCCC2)[C@H]1c1ccccc1 [II-249] | < 1 | < 1 | +++ (≥350) | > 200
COc1ccc(-c2cccnc2OC)cc1CN[C@H]1[C@H](C(C)(C)C)[C@@H](C(=O)O)N(C(=O)C2CCCCC2)[C@H]1c1ccccc1 [II-250] | 1 to 10 | 1 to 10 | +++ (≥350) | 100 to 200
COc1ncc(C2CC3CCC2C3)cc1CN[C@H]1[C@H](C(C)(C)OC)[C@@H](C(=O)O)N(C(=O)C2CCCCC2)[C@H]1c1ccccc1 (stereo partly drawn) [II-251] | < 1 | < 1 | +++ (≥350) | 100 to 200
COc1ncc(C2CCCCC2)cc1CN[C@H]1[C@H](C(C)(C)OC)[C@@H](C(=O)O)N(C(=O)C2CCCCC2)[C@H]1c1ccccc1 [II-252] | < 1 | < 1 | +++ (≥350) | > 200
COc1ncc(CC2CCCCC2)cc1CN[C@H]1[C@H](C(C)(C)OC)[C@@H](C(=O)O)N(C(=O)C2CCCCC2)[C@H]1c1ccccc1 [II-253] | < 1 | < 1 | +++ (≥350) | 100 to 200
COc1ncc(C(C)C)cc1CN[C@H]1[C@H](C(C)(C)OC)[C@@H](C(=O)O)N(C(=O)C2CCCCC2)[C@H]1c1ccccc1 [II-254] | 1 to 10 | 1 to 10 | +++ (≥350) | > 200
COc1ccc(C2CCC2)cc1CN[C@H]1[C@H](C(C)(C)OC)[C@@H](C(=O)O)N(C(=O)C2CCCCC2)[C@H]1c1ccccc1 [II-255] | < 1 | < 1 | +++ (≥350) | > 200
COc1ccc(C2CCCC2)cc1CN[C@H]1[C@H](C(C)(C)OC)[C@@H](C(=O)O)N(C(=O)C2CCCCC2)[C@H]1c1ccccc1 [II-256] | < 1 | < 1 | +++ (≥350) | > 200
COc1ccc(C2CCCCC2)cc1CN[C@H]1[C@H](C(C)(C)OC)[C@@H](C(=O)O)N(C(=O)C2CCCCC2)[C@H]1c1ccccc1 [II-257] | < 1 | < 1 | +++ (≥350) | > 200
COc1ccc(C(C)C)cc1CN[C@H]1[C@H](C(C)(C)OC)[C@@H](C(=O)O)N(C(=O)C2CCCCC2)[C@H]1c1ccccc1 [II-258] | 1 to 10 | < 1 | +++ (≥350) | > 200
COc1ncc(C2CC2)cc1CN[C@H]1[C@H](C(C)(C)C)[C@@H](C(=O)O)N(C(=O)C2CCCCC2)[C@H]1c1ccccc1 [II-259] | 1 to 10 | 1 to 10 | +++ (≥350) | 100 to 200
COc1ccc(C(F)(F)F)cc1CN[C@H]1[C@H](C(C)(C)C)[C@@H](C(=O)O)N(C(=O)C2CCCCC2)[C@H]1c1ccccc1F [II-260] | 1 to 10 | 1 to 10 | +++ (≥350) | 100 to 200
COc1cc(C(F)(F)F)ccc1CN[C@H]1[C@H](C(C)(C)C)[C@@H](C(=O)O)N(C(=O)C2CCCCC2)[C@H]1c1ccccc1F [II-261] | 1 to 10 | 1 to 10 | +++ (≥350) | < 100
COc1ccc(Br)cc1CN[C@H]1[C@H](C(C)(C)C)[C@@H](C(=O)O)N(C(=O)C2CCCCC2)[C@H]1c1ccccc1F [II-262] | 1 to 10 | 1 to 10 | +++ (≥350) | 100 to 200
COc1ncc(Br)cc1CN[C@H]1[C@H](C(C)(C)C)[C@@H](C(=O)O)N(C(=O)C2CCCCC2)[C@H]1c1ccccc1F [II-263] | 1 to 10 | 1 to 10 | +++ (≥350) | < 100
COc1ccc(C(C)(C)C)cc1CN[C@H]1[C@H](C(C)(C)C)[C@@H](C(=O)O)N(C(=O)OCC(C)C)[C@H]1c1ccccc1 [II-264] | 1 to 10 | 1 to 10 | +++ (≥350) | > 200
COc1ccc(C(C)(C)C)cc1CN[C@H]1[C@H](C(C)(C)C)[C@@H](C(=O)O)N(C(=O)C(OC)C(C)C)[C@H]1c1ccccc1 (stereo partly drawn) [II-267] | 1 to 10 | 1 to 10 | +++ (≥350) | > 200
COc1ccc(C(F)(F)F)cc1CN[C@H]1[C@H](C(C)(C)C)[C@@H](C(=O)O)N(C(=O)C(OC)C(C)C)[C@H]1c1ccccc1 (stereo partly drawn) [II-273] | 1 to 10 | 1 to 10 | +++ (≥350) | > 200
COc1ccc(-c2cccs2)cc1CN[C@H]1[C@H](C(C)(C)C)[C@@H](C(=O)O)N(C(=O)C2CCCCC2)[C@H]1c1ccccc1 [II-275] | < 1 | < 1 | +++ (≥350) | > 200
COc1ccc(-c2ccoc2)cc1CN[C@H]1[C@H](C(C)(C)C)[C@@H](C(=O)O)N(C(=O)C2CCCCC2)[C@H]1c1ccccc1 [II-276] | 1 to 10 | < 1 | +++ (≥350) | > 200
COc1cccc(-c2ccc(OC)c(CN[C@H]3[C@H](C(C)(C)C)[C@@H](C(=O)O)N(C(=O)C4CCCCC4)[C@H]3c3ccccc3)c2)c1 [II-277] | 1 to 10 | < 1 | +++ (≥350) | > 200
COc1ccc(-c2ccc(C)nc2)cc1CN[C@H]1[C@H](C(C)(C)C)[C@@H](C(=O)O)N(C(=O)C2CCCCC2)[C@H]1c1ccccc1 [II-278] | 1 to 10 | 1 to 10 | +++ (≥350) | 100 to 200
COc1ccc(-c2ccccc2C)cc1CN[C@H]1[C@H](C(C)(C)C)[C@@H](C(=O)O)N(C(=O)C2CCCCC2)[C@H]1c1ccccc1 [II-279] | < 1 | < 1 | +++ (≥350) | > 200
